Assay results: patent US20240287028A1, “HERBICIDAL PHENYLURACILS” (BASF SE, priority 2021, published 2024)

Key:
Experiment in all cases: greenhouse herbicidal test, post-emergence treatment
Assay type in all cases: in vivo
Setaria faberi = conditions: scale 0 to 100
Description: (§1) The culture containers used were plastic flowerpots containing loamy sand with approximately 3.0% of humus as the substrate. The seeds of the test plants were sown separately for each species.
(§2) For the pre-emergence treatment, the active ingredients, which had been suspended or emulsified in water, were applied directly after sowing by means of finely distributing nozzles. The containers were irrigated gently to promote germination and growth and subsequently covered with transparent plastic hoods until the test plants had rooted. This cover caused uniform germination of the test plants, unless this had been impaired by the active ingredients. For the post-emergence treatment, the test plants were first grown to a height of 3 to 15 cm, depending on the plant habit, and only then treated with the active ingredients which had been suspended or emulsified in water. For this purpose, the test plants were either sown directly and grown in the same containers, or they were first grown separately as seedlings and transplanted into the test containers a few days prior to treatment.
(§3) Depending on the species, the test plants were kept at 10-25° C. or 20-35° C., respectively. The test period extended over 2 to 3 weeks. During this time, the test plants were tended, and their response to the individual treatments was evaluated.
(§4) Evaluation was carried out using a scale from 0 to 100. 100 means no emergence of the test plants, or complete destruction of at least the aerial moieties, and 0 means no damage, or normal course of growth. A good herbicidal activity is given at values of at least 70 and a very good herbicidal activity is given at values of at least 85.

Digitaria insularis = conditions: scale 0 to 100
Description: as §1, §2, §3, §4

Erigeron canadensis = conditions: application rate 4 g/ha, scale 0 to 100
Description: as §1, §2, §3, §4

| SMILES | damages, unwanted plants SETFA (Setaria faberi; application rate 1 g/ha) | damages, unwanted plants SETFA (Setaria faberi; application rate 2 g/ha) | damages, unwanted plants SETFA (Setaria faberi; application rate 4 g/ha) | damages, unwanted plants TRCIN (Digitaria insularis; application rate 2 g/ha) | damages, unwanted plants TRCIN (Digitaria insularis; application rate 4 g/ha) | damages, unwanted plants ERICA (Erigeron canadensis) |
| --- | --- | --- | --- | --- | --- | --- |
| CCOC(=O)COc1ncccc1Oc1cc(-n2c(=O)cc(C(C)(F)F)n(C)c2=O)c(F)cc1Cl [Example 1.1, Ethyl 2-[[3-[2-chloro-5-[4-(1,1-difluoroethyl)-3-methyl-2,6-dioxo-pyrimidin-1-yl]-4-fluoro-phenoxy]-2-pyridyl]oxy]acetate] | 80 | 90 | 95 | 95 | 100 | 100 |
| CCOC(=O)COc1ncccc1Oc1cc(-n2c(=O)cc(C(F)(F)F)n(C)c2=O)c(F)cc1Cl [cmpd I-2-8] | 70 | 85 | 90 | 90 | 90 | 65 |
